# Results taken from patent WO2009110655A1, “Novel beta substituted morita-baylis-hillman derivatives” (FOOD SCIENCE Co Ltd, priority 2008, dated 2009).
# What was measured:
# [1] = test system: human esophageal cancer cell line HEC4; experiment: MTT assay, anticancer effect (cytotoxicity) of β-substituted MBH derivatives; format: cell-based
# Human HeLa cell lines = conditions: "It is reported"; cited from earlier work
# [2] = 2 mg compound in 80 μl DMSO, 1 μl per well, 24 h at 37 °C, undiluted (FIGs. 1 and 2)
# [3] = diluted 20-fold, 24 h at 37 °C (FIG. 3)
smiles,measurement,setting,value
"CCCCCCCCCCCC/C=C(\C(=O)OC)C(O)c1ccccc1 (stereo not drawn) [SE-Il, (Z)-methyl-2-(hydroxy(phenyl)methyl)pentadeca-2-enoate]",oncolytic activity,[1]; [2],very high oncolytic activities
same,viabilities of the cancer cells,[1]; [2],less than 20%
"C=C(C)C(O[Si](CC)(CC)CC)/C(=C\CCCCCCCCCCCCC)C(=O)OC (stereo not drawn) [SE-I, (E)-methyl-2-(l-triethylsiloxy-2-methylaryl)hexadeca-2-enoate]",oncolytic activity,[1]; [2],almost no oncolytic activity
"CCCCCCCCCCCCC/C=C(/C(=O)OC)C(O)C(C)=O (stereo not drawn) [SE-3, secokotomolide A]",viabilities of the cancer cells,[1]; [3],about 50%
same,DNA damage,Human HeLa cell lines,apotositic DNA damage
same,induction of apoptosis,Human HeLa cell lines,significant induction of apoptosis
"CCCCCCCCCCCCC/C=C(/C(=O)OC)C(O[Si](CC)(CC)CC)C(C)=O (stereo not drawn) [SE-2, (E)-methyl-2-(l-triethylsiloxy-2-oxopropyl)hexadeca-2-enoate]",oncolytic activity,[1]; [2],almost no oncolytic activity
"CCCCCCCCCCCCC/C=C(/C(=O)OC)C(O)c1ccccc1 (stereo not drawn) [SE-5, (E)-methyl-2-(hydroxy(phenyl)methyl)hexateca-2-enoate]",viabilities of the cancer cells,[1]; [3],about 50%
same,activity (comparison of diluted samples),"[1]; diluted samples, 20-fold, compared with SE-3 (FIG. 3)",a little higher activity than SE-3
